Assay results taken from patent publication US20230286929A1, “AROMATIC BRIDGED RING AMIDE DERIVATIVES FOR THE TREATMENT AND PROPHYLAXIS OF HEPATITIS B VIRUS INFECTION” (Hoffmann-La Roche Inc., priority 2020, published 2023).

Tests used:
Assay type in all cases: cell-based
[1] = system: HBsAg; assay: PHH HBV natural infection assay, HBsAg (alphalisa); conditions: Hepatitis B virus, Hepatocyte, 72 h, read-out: HBsAg IC50
Experimental: (§1) Detailed procedures regarding primary human hepatocyte (PHH) HBV natural infection assay are described as below. One tube of frozen PHH (10 million cells) is thawed in 37° C. water bath and then transferred to 20 mL of PHH thawing medium (Sigma, InVitroGRO HT Medium, Cat. S03319) with gently mixing. The cells were then centrifuged at […] for 5 min, the supernatant was discarded and the tube was refilled with 25 mL of PHH plating medium (Sigma, InVitroGRO CP Medium, Cat. 503317). The tube was shaken very gently to re-suspend all cells. 50 μl of cells were transferred to each well 384-well collagen I coated plate with appropriate liquid handling equipment, e.g. Integra VIAFLO384 or Agilent Bravo. The cells were then cultured for 24 hours in a cell incubator. For HBV infection, after PHH attachment on the culture plate, the plating medium was removed and replenished with PHH culture medium containing HBV virus. The PHH culture medium was prepared with Dulbecco's Modified Eagle Medium (DMEM)/F12 (1:1 in volume ratio) containing 10% fetal bovine serum (Gibco, Cat. 10099141), […] (Gibco, Cat. PHG03I1L), 20 ng/mL dexamethasone (Sigma, Cat. D4902-100 mg), 250 ng/mL human recombinant insulin (Gibco, Cat. 41400045) and 100 U/mL penicillin. HBV virus at 200 genome equivalent (GE) per cell with 4% PEG8000 (Sigma, Cat. P1458) containing culture medium were added to the PHH culture medium for infection. The cells were then cultured for 24 hours in cell incubator. Then the cell culture supernatant was removed. The HBV-infected PHH were cultured with sandwich culture method with PHH culture medium containing 1% DMSO and 0.25 mg/mL matrix gel for 72 hours. The supernatant was then refreshed with PHH culture medium containing different concentrations of testing compounds for two times with 72-hour interval. At the end of treatment, the supernatant was collected for viral markers measurements, including HBsAg, HBeAg, HBV DNA and cytotoxicity. HBsAg and HBeAg were detected using alphalisa method using their specific antibodies. For HBV DNA detection, HBV DNA Quantitative Fluorescence Diagnostic Kit (Sansure Biotech Inc.) was used following the manufacture's protocol. Cytotoxicity was determined using Cell Counting Kit-8 (CCK8, Dojindo Molecular Technologies, Inc.).
(§2) The compounds of the present invention were tested for their capacity to inhibit HBsAg and HBeAg as described herein.

[2] = Cytotoxicity in PHH natural infection assay (Cell Counting Kit-8); conditions: HBV-infected primary human hepatocytes, CCK8
Experimental: as §1

[3] = system: HBeAg; assay: PHH HBV natural infection assay, HBeAg (alphalisa); conditions: Hepatitis B virus, Hepatocyte, 72 h, read-out: HbeAg IC50
Experimental: as §1, §2

CCCC(=O)NS(=O)(=O)c1ccc(C(=O)NC23CC(c4nc5cc(Cl)ccc5o4)(C2)C3)o1 [Example 31, 5-(butanoylsulfamoyl)-N-[3-(5-chloro-1,3-benzoxazol-2-yl)-1-bicyclo[1.1.1]pentanyl]furan-2-carboxamide]
IC50 [1]: 3.63 µM
CC50 at 144 h [2]: > 100 µM
IC50 [3]: 4.78 µM

CS(=O)(=O)c1ccc(C(=O)NC23CC(c4nc5ccc(Cl)cc5o4)(C2)C3)o1 [Example 32, N-[3-(6-chloro-1,3-benzoxazol-2-yl)-1-bicyclo[1.1.1]pentanyl]-5-methylsulfonyl-furan-2-carboxamide]
IC50 [1]: 5.67 µM
CC50 at 144 h [2]: > 100 µM
IC50 [3]: 3.46 µM

O=C(NC12CC(c3nc4ccc(Cl)cc4o3)(C1)C2)c1ccc(S(=O)(=O)C2CC2)o1 [Example 33, N-[3-(6-chloro-1,3-benzoxazol-2-yl)-1-bicyclo[1.1.1]pentanyl]-5-cyclopropylsulfonyl-furan-2-carboxamide]
IC50 [1]: 0.792 µM
CC50 at 144 h [2]: > 100 µM
IC50 [3]: 0.58 µM

O=C(NC12CC(c3nc4ccc(Cl)cc4o3)(C1)C2)c1ccc(S(=O)(=O)CC2CC2)o1 [Example 34, N-[3-(6-chloro-1,3-benzoxazol-2-yl)-1-bicyclo[1.1.1]pentanyl]-5-(cyclopropylmethylsulfonyl)furan-2-carboxamide]
IC50 [1]: 3.54 µM
CC50 at 144 h [2]: 95.4 µM
IC50 [3]: 2.79 µM

CS(=N)(=O)c1ccc(C(=O)NC23CC(c4nc5ccc(Cl)cc5o4)(C2)C3)o1 (stereo not drawn) [Example 35, N-[3-(6-chloro-1,3-benzoxazol-2-yl)-1-bicyclo[1.1.1]pentanyl]-5-(methylsulfonimidoyl)furan-2-carboxamide]
IC50 [1]: 4.29 µM
CC50 at 144 h [2]: > 100 µM
IC50 [3]: 3.51 µM

CS(=O)(=O)c1cccc(C(=O)NC23CC(c4nc5ccc(Cl)cc5o4)(C2)C3)c1 [Example 36, N-[3-(6-chloro-1,3-benzoxazol-2-yl)-1-bicyclo[1.1.1]pentanyl]-3-methylsulfonyl-benzamide]
IC50 [1]: 2.25 µM
CC50 at 144 h [2]: > 100 µM
IC50 [3]: 2.5 µM

O=C(NC12CC(c3nc4ccc(Cl)cc4o3)(C1)C2)c1ccnc(C(F)(F)F)c1 [Example 37, N-[3-(6-chloro-1,3-benzoxazol-2-yl)-1-bicyclo[1.1.1]pentanyl]-2-(trifluoromethyl)pyridine-4-carboxamide]
IC50 [1]: 4.17 µM
CC50 at 144 h [2]: > 100 µM
IC50 [3]: 3.63 µM

O=C(NC12CC(c3nc4ccc(Cl)cc4o3)(C1)C2)c1ccnc(S(=O)(=O)C2CC2)c1 [Example 38, N-[3-(6-chloro-1,3-benzoxazol-2-yl)-1-bicyclo[1.1.1]pentanyl]-2-cyclopropylsulfonyl-pyridine-4-carboxamide]
IC50 [1]: 6.65 µM
CC50 at 144 h [2]: > 10 µM
IC50 [3]: 4.48 µM

CS(=O)(=O)Cc1ccc(C(=O)NC23CC(c4nc5ccc(Cl)cc5o4)(C2)C3)o1 [Example 39, N-[3-(6-chloro-1,3-benzoxazol-2-yl)-1-bicyclo[1.1.1]pentanyl]-5-(methylsulfonylmethyl)furan-2-carboxamide]
IC50 [1]: 0.648 µM
CC50 at 144 h [2]: > 100 µM
IC50 [3]: 0.75 µM

CS(=N)(=O)Cc1ccc(C(=O)NC23CC(c4nc5ccc(Cl)cc5o4)(C2)C3)o1 (stereo not drawn) [Example 40, N-[3-(6-chloro-1,3-benzoxazol-2-yl)-1-bicyclo[1.1.1]pentanyl]-5-[(methylsulfonimidoyl)methyl]furan-2-carboxamide]
IC50 [1]: 6.99 µM
CC50 at 144 h [2]: > 100 µM
IC50 [3]: 4.07 µM

CS(=O)(=O)Cc1ccc(C(=O)NC23CC(c4nc5cc(Cl)cnc5o4)(C2)C3)o1 [Example 41, N-[3-(6-chlorooxazolo[5,4-b]pyridin-2-yl)-1-bicyclo[1.1.1]pentanyl]-5-(methylsulfonylmethyl)furan-2-carboxamide]
IC50 [1]: 5.7 µM
CC50 at 144 h [2]: > 100 µM
IC50 [3]: 6.21 µM

O=C(NC12CC(c3nc4cc(Cl)cnc4o3)(C1)C2)c1ccnc(C(F)(F)F)c1 [Example 42, N-[3-(6-chlorooxazolo[5,4-b]pyridin-2-yl)-1-bicyclo[1.1.1]pentanyl]-2-(trifluoromethyl)pyridine-4-carboxamide]
IC50 [1]: 8.83 µM
CC50 at 144 h [2]: 92 µM
IC50 [3]: 10.6 µM

CS(=O)(=O)Cc1ccc(C(=O)NC23CC(c4nc5cnc(Cl)cc5o4)(C2)C3)o1 [Example 43, N-[3-(6-chlorooxazolo[4,5-c]pyridin-2-yl)-1-bicyclo[1.1.1]pentanyl]-5-(methylsulfonylmethyl)furan-2-carboxamide]
IC50 [1]: 7.62 µM
CC50 at 144 h [2]: > 10 µM
IC50 [3]: 5.55 µM

CS(=O)(=O)c1ccc(C(=O)NC23CC(c4nc5cccc(Cl)c5o4)(C2)C3)o1 [Example 44, N-[3-(7-chloro-1,3-benzoxazol-2-yl)-1-bicyclo[1.1.1]pentanyl]-5-methylsulfonyl-furan-2-carboxamide]
IC50 [1]: 8.93 µM
CC50 at 144 h [2]: > 100 µM
IC50 [3]: 3.1 µM

CS(=O)(=O)c1ccc(C(=O)NC23CC(c4nc5ccc(F)cc5o4)(C2)C3)o1 [Example 45, N-[3-(6-fluoro-1,3-benzoxazol-2-yl)-1-bicyclo[1.1.1]pentanyl]-5-methylsulfonyl-furan-2-carboxamide]
IC50 [1]: 8.63 µM
CC50 at 144 h [2]: > 100 µM
IC50 [3]: 4.48 µM

CS(=O)(=O)c1ccc(C(=O)NC23CCC(c4nc5cc(Cl)ccc5o4)(CC2)C3)o1 [Example 46, N-[4-(5-chloro-1,3-benzoxazol-2-yl)norbornan-1-yl]-5-methylsulfonyl-furan-2-carboxamide]
IC50 [1]: 7.15 µM
CC50 at 144 h [2]: 76.6 µM
IC50 [3]: 4.48 µM

O=C(NC12CCC(c3nc4cc(Cl)ccc4o3)(CC1)CC2)c1ccc(C(F)(F)F)o1 [Example 47, N-[4-(5-chloro-1,3-benzoxazol-2-yl)-1-bicyclo[2.2.2]octanyl]-5-(trifluoromethyl)furan-2-carboxamide]
IC50 [1]: 7.69 µM
CC50 at 144 h [2]: > 100 µM
IC50 [3]: 3.91 µM

O=C(NC12CCC(c3nc4cc(Cl)ccc4o3)(CC1)CC2)C1CC2(C1)CS(=O)(=O)C2 [Example 48, N-[4-(5-chloro-1,3-benzoxazol-2-yl)-1-bicyclo[2.2.2]octanyl]-2,2-dioxo-2lambda6-thiaspiro[3.3]heptane-6-carboxamide]
IC50 [1]: 1.71 µM
CC50 at 144 h [2]: > 100 µM
IC50 [3]: 1.03 µM

O=C(NC12CCC(c3nc4cc(Cl)ccc4o3)(CC1)CC2)C1CCCS1(=O)=O (stereo not drawn) [Example 49, N-[4-(5-chloro-1,3-benzoxazol-2-yl)-1-bicyclo[2.2.2]octanyl]-1,1-dioxo-thiolane-2-carboxamide]
IC50 [1]: 2.73 µM
CC50 at 144 h [2]: > 100 µM
IC50 [3]: 1.27 µM

O=C(NC12CCC(c3nc4cc(Cl)ccc4o3)(CC1)CC2)C1CCS(=O)(=O)C1 (stereo not drawn) [Example 50, N-[4-(5-chloro-1,3-benzoxazol-2-yl)-1-bicyclo[2.2.2]octanyl]-1,1-dioxo-thiolane-3-carboxamide]
IC50 [1]: 4.14 µM
CC50 at 144 h [2]: > 100 µM
IC50 [3]: 5.11 µM

CC1(C(=O)NC23CCC(c4nc5cc(Cl)ccc5o4)(CC2)CC3)CCS(=O)(=O)C1 (stereo not drawn) [Example 51, N-[4-(5-chloro-1,3-benzoxazol-2-yl)-1-bicyclo[2.2.2]octanyl]-3-methyl-1,1-dioxo-thiolane-3-carboxamide]
IC50 [1]: 9.21 µM
CC50 at 144 h [2]: > 100 µM
IC50 [3]: 4.87 µM

O=C(NC12CCC(c3nc4cc(Cl)ccc4o3)(CC1)CC2)C1CCCS(=O)(=O)C1 (stereo not drawn) [Example 52, N-[4-(5-chloro-1,3-benzoxazol-2-yl)-1-bicyclo[2.2.2]octanyl]-1,1-dioxo-thiane-3-carboxamide]
IC50 [1]: 2.76 µM
CC50 at 144 h [2]: > 100 µM
IC50 [3]: 1.06 µM

O=C(CC1CCCS1(=O)=O)NC12CCC(c3nc4cc(Cl)ccc4o3)(CC1)CC2 (stereo not drawn) [Example 53, N-[4-(5-chloro-1,3-benzoxazol-2-yl)-1-bicyclo[2.2.2]octanyl]-2-(1,1-dioxothiolan-2-yl)acetamide]
IC50 [1]: 2.28 µM
CC50 at 144 h [2]: > 100 µM
IC50 [3]: 1.87 µM

O=C(CC1CCCS(=O)(=O)C1)NC12CCC(c3nc4cc(Cl)ccc4o3)(CC1)CC2 (stereo not drawn) [Example 54, N-[4-(5-chloro-1,3-benzoxazol-2-yl)-1-bicyclo[2.2.2]octanyl]-2-(1,1-dioxothian-3-yl)acetamide]
IC50 [1]: 3.38 µM
CC50 at 144 h [2]: 43.9 µM
IC50 [3]: 3.22 µM

O=C(CN1CCCCS1(=O)=O)NC12CCC(c3nc4cc(Cl)ccc4o3)(CC1)CC2 [Example 55, N-[4-(5-chloro-1,3-benzoxazol-2-yl)-1-bicyclo[2.2.2]octanyl]-2-(1,1-dioxothiazinan-2-yl)acetamide]
IC50 [1]: 2.06 µM
CC50 at 144 h [2]: > 100 µM
IC50 [3]: 0.888 µM
